Source: PubChem BioAssay (NCI)
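Compound exposure: 48 hours, 5 concentrations, 96-well plates. At the TGI there is no net growth.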

Assays:
Assay in all cases: NCI anticancer screen, dose series, 48 h
786-0 renal = test system: 786-0 renal
A498 renal = test system: A498 renal
A549 NSCLC = test system: A549 NSCLC
ACHN renal = test system: ACHN renal
BT-549 breast = test system: BT-549 breast
CAKI-1 renal = test system: CAKI-1 renal
CCRF-CEM leukemia = test system: CCRF-CEM leukemia
COLO 205 colon = test system: COLO 205 colon
DU-145 prostate = test system: DU-145 prostate
EKVX NSCLC = test system: EKVX NSCLC
HCC-2998 colon = test system: HCC-2998 colon
HCT-116 colon = test system: HCT-116 colon
HCT-15 colon = test system: HCT-15 colon
HL-60(TB) leukemia = test system: HL-60(TB) leukemia
HOP-62 NSCLC = test system: HOP-62 NSCLC
HOP-92 NSCLC = test system: HOP-92 NSCLC
HS 578T breast = test system: HS 578T breast
HT29 colon = test system: HT29 colon
IGROV1 ovarian = test system: IGROV1 ovarian
K-562 leukemia = test system: K-562 leukemia
KM12 colon = test system: KM12 colon
LOX IMVI melanoma = test system: LOX IMVI melanoma
M14 melanoma = test system: M14 melanoma
MALME-3M melanoma = test system: MALME-3M melanoma
MCF7 breast = test system: MCF7 breast
MDA-MB-231 breast = test system: MDA-MB-231 breast
MDA-MB-435 = test system: MDA-MB-435
MDA-N = test system: MDA-N
MOLT-4 leukemia = test system: MOLT-4 leukemia
NCI-H226 lung = test system: NCI-H226 lung
NCI-H23 lung = test system: NCI-H23 lung
NCI-H460 lung = test system: NCI-H460 lung
NCI-H522 lung = test system: NCI-H522 lung
NCI/ADR-RES ovarian = test system: NCI/ADR-RES ovarian
OVCAR-4 ovarian = test system: OVCAR-4 ovarian
OVCAR-5 ovarian = test system: OVCAR-5 ovarian
OVCAR-8 ovarian = test system: OVCAR-8 ovarian
PC-3 prostate = test system: PC-3 prostate
RPMI-8226 leukemia = test system: RPMI-8226 leukemia
RXF 393 renal = test system: RXF 393 renal
SF-268 CNS = test system: SF-268 CNS
SF-295 CNS = test system: SF-295 CNS
SK-MEL-2 melanoma = test system: SK-MEL-2 melanoma
SK-MEL-28 melanoma = test system: SK-MEL-28 melanoma
SK-MEL-5 melanoma = test system: SK-MEL-5 melanoma
SK-OV-3 ovarian = test system: SK-OV-3 ovarian
SN12C renal = test system: SN12C renal
SNB-19 CNS = test system: SNB-19 CNS
SNB-75 CNS = test system: SNB-75 CNS
SR leukemia = test system: SR leukemia
SW-620 colon = test system: SW-620 colon
T-47D breast = test system: T-47D breast
TK-10 renal = test system: TK-10 renal
U251 CNS = test system: U251 CNS
UACC-257 melanoma = test system: UACC-257 melanoma
UACC-62 melanoma = test system: UACC-62 melanoma
UO-31 renal = test system: UO-31 renal

O=C(c1ccccc1)n1c(Cc2ccccc2)nc2cc(C34CC5CC(CC(C5)C3)C4)ccc21
TGI (786-0 renal): > 100 µM | TGI (A498 renal): > 100 µM | TGI (A549 NSCLC): > 100 µM | TGI (ACHN renal): > 100 µM | TGI (BT-549 breast): > 100 µM | TGI (CAKI-1 renal): > 100 µM | TGI (CCRF-CEM leukemia): > 100 µM | TGI (COLO 205 colon): 58.2 µM | TGI (DU-145 prostate): > 100 µM | TGI (EKVX NSCLC): > 100 µM | TGI (HCC-2998 colon): > 100 µM | TGI (HCT-116 colon): > 100 µM | TGI (HCT-15 colon): 48.5 µM | TGI (HL-60(TB) leukemia): > 100 µM | TGI (HOP-62 NSCLC): > 100 µM | TGI (HOP-92 NSCLC): > 100 µM | TGI (HS 578T breast): > 100 µM | TGI (HT29 colon): > 100 µM | TGI (IGROV1 ovarian): > 100 µM | TGI (K-562 leukemia): > 100 µM | TGI (KM12 colon): > 100 µM | TGI (LOX IMVI melanoma): > 100 µM | TGI (M14 melanoma): > 100 µM | TGI (MALME-3M melanoma): > 100 µM | TGI (MCF7 breast): 90 µM | TGI (MDA-MB-231 breast): > 100 µM | TGI (MDA-MB-435): > 100 µM | TGI (MDA-N): > 100 µM | TGI (MOLT-4 leukemia): > 100 µM | TGI (NCI-H226 lung): > 100 µM | TGI (NCI-H23 lung): > 100 µM | TGI (NCI-H460 lung): > 100 µM | TGI (NCI-H522 lung): > 100 µM | TGI (NCI/ADR-RES ovarian): > 100 µM | TGI (OVCAR-4 ovarian): > 100 µM | TGI (OVCAR-5 ovarian): > 100 µM | TGI (OVCAR-8 ovarian): > 100 µM | TGI (PC-3 prostate): > 100 µM | TGI (RPMI-8226 leukemia): > 100 µM | TGI (RXF 393 renal): > 100 µM | TGI (SF-268 CNS): > 100 µM | TGI (SF-295 CNS): > 100 µM | TGI (SK-MEL-2 melanoma): > 100 µM | TGI (SK-MEL-28 melanoma): > 100 µM | TGI (SK-MEL-5 melanoma): 56.5 µM | TGI (SK-OV-3 ovarian): > 100 µM | TGI (SN12C renal): > 100 µM | TGI (SNB-19 CNS): > 100 µM | TGI (SNB-75 CNS): > 100 µM | TGI (SR leukemia): > 100 µM | TGI (SW-620 colon): > 100 µM | TGI (T-47D breast): > 100 µM | TGI (TK-10 renal): > 100 µM | TGI (U251 CNS): > 100 µM | TGI (UACC-257 melanoma): > 100 µM | TGI (UACC-62 melanoma): > 100 µM | TGI (UO-31 renal): > 100 µM
